From US20060015954A1, “GPR54 knock-out mammals and screening methods using them” (Paradigm Therapeutics Limited, priority 2002, published 2006)
Where two headings read alike, the source gives them in different places. Ends that are not written are not given here.

Experiments:
[1] = test system: LH secretion from the pituitary; experiment: Serum LH assay after administration of exogenous GnRH; format: in vivo, mice
Protocol: (§1) 3) Administration of Exogenous GnRH and Effects on FSH and LH Secretion from the Pituitary
(§2) Method: 25 ng of GnRH peptide was injected 4 times in 30 min intervals and the animals killed to collect blood and pituitary 30 min after last injection. All mice were killed between 11 am-1 pm.
(§3) Animal groups: 6 WT injected with just PBS (control), 6 WT injected with GnRH made in PBS and 6 HP injected with GnRH/PBS. All WT animals were staged and used at dioestrous (end of LH and FSH surge). All mice aged 2-4 months. This was repeated for LH and FSH measurements.
Serum LH assay: There is a 5-fold increase in LH in serum of WT injected with GnRH compared to those injected with just PBS.

[2] = test system: LH levels in the pituitary; experiment: Depletion of LH levels in the pituitary after stimulation by exogenous GnRH; format: in vivo, mice; settings: mutants, FIG. 15b
Protocol: as §2, §3
Measurement of the depletion of LH levels in the pituitary after stimulation by exogenous was measured. […] There were no deleterious effects of knocking out the gene in the mutants.

[3] = test system: FSH secretion from the pituitary; experiment: Serum FSH assay after administration of exogenous GnRH; format: in vivo, mice
Protocol: as §1, §2, §3
Serum FSH assay: There is a 1.9-fold increase in FSH in serum of WT injected with GnRH compared to those injected with just PBS.

[4] = biological target: GPR54 (Homo sapiens, UniProt Q969F8); settings: Lee et al 1999; Ohtaki et al 2001; cited from earlier work
[5] = test system: oxytocin secretion; settings: intravenous injection, female rat; Kotani et al 2001; cited from earlier work
[6] = test system: melanomas; settings: mice with melanomas injected in footpads, administration by perfusion; Ohtaki et al 2001; cited from earlier work
[7] = test system: B16-L16 melanoma cells transfected with the GPR54 receptor; settings: cited from earlier work
[8] = test system: ovaries (ovulation of mature oocytes); experiment: Exogenous gonadotrophins: ovulation in GPR54 mutant females; format: in vivo, mice; settings: 1000 iu PMS followed two days later by 1000 iu bHCG, n=6
Source text: This is consistent with the hypothesis that GPR54 receptors and ligands are acting at the level of the pituitary hypothalamic axis and not the end-organs.

[9] = HP (GPR54 knockout) mice injected with GnRH against WT injected with just PBS

Chain of GPR54 (Q969F8 whole entry, species assumed): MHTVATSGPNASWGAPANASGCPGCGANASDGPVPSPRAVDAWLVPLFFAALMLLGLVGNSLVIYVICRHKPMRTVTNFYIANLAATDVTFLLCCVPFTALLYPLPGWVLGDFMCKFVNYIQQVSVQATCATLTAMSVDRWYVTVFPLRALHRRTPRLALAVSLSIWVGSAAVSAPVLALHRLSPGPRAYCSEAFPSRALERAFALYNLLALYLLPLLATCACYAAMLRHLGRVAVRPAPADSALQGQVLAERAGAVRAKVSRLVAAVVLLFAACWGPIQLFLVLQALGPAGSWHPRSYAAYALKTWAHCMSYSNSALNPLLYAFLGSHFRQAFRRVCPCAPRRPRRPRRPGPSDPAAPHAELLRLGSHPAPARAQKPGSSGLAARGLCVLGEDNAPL

GnRH: gonadotropin-releasing hormone peptide injected in PBS (QHWSYGLRPG; ends and bridges not checked; UniProt P01148 24-33, looked up)
increase in LH in serum [1, 9]: 5 fold | increase in LH in serum ([1]; WT mice injected with GnRH compared to WT injected with just PBS): 5 fold | LH levels in the pituitary after stimulation [2]: corresponding depletion of LH levels in the pituitary | increase in FSH in serum [3, 9]: 1.7 fold | increase in FSH in serum ([3]; WT mice injected with GnRH (25 ng x 4 at 30 min intervals) compared to WT injected with just PBS): 1.9 fold

galanin-like peptide: galanin-like peptide reported not to activate GPR54 (APAHRGRGGWTLNSAGYLLGPVLHLPQMGDQDGKRETALEILDLWKAIDGLPYSHPPQPS; Galanin-like peptide; UniProt Q9UBC7 25-84, looked up)
activation of GPR54 [4]: neither galanin nor galanin-like peptide activate GPR54

kisspeptin-10: kisspeptin peptide injected intravenously in female rat (YNWNSFGLRF; ends and bridges not checked; UniProt Q15726 112-121, looked up)
oxytocin secretion [5]: stimulates oxytocin secretion

metastin: 54 amino acid kisspeptin, product of the Kiss-1 gene, natural ligand of GPR54 (GTSLSPPPESSGSPQQPGLSAPHSRQIPAPQGAVLVQREKDLPNYNWNSFGLRF; ends and bridges not checked; UniProt Q15726 68-121, looked up)
metastases [6]: significantly decreased metastases | cell motility ([7]; B16-L16 melanoma cells transfected with the GPR54 receptor): inhibits motility | cell motility ([7]; mock-transfected B16-L16 melanoma cells): not in mock-transfected cells

B1: bHCG: beta human chorionic gonadotrophins (protein, UniProt P0DN86 21-165, looked up)
Choriogonadotropin subunit …: SKEPLRPRCRPINATLAVEKEGCPVCITVNTTICAGYCPTMTRVLQGVLPALPQVVCNYRDVRFESIRLPGCPRGVNPVVSYAVALSCQCALCRRSTTDCGGPKDHPLTCDDPRFQDSSSSKAPPPSLPSPSRLPGPSDTPILPQ
mutant females with ovulation of mature oocytes [8]: 50%
